Laboratory results as given in patent US10294202B2, “Pyrrolidinones as herbicides” (FMC Corporation, priority 2013, dated 2019).

Experiments:
corn = test: Test A pre-/postemergence herbicide test; assay type: in vivo, Zea mays; conditions: Postemergence; for Plant response rating, Corn: 125 g ai/ha, 0 to 100 scale, 0 no effect, 100 complete control; for Corn plant response rating (0 to 100 scale, 0 is no effect, 100 is complete control): 500 g ai/ha
Summary of the method: (§1)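 Scoring was visual, relative to untreated controls, on a 0–100 scale after about 10 greenhouse days. Preemergence treatment used a directed soil spray over seeded loam/sand; postemergence treatment targeted one- to two-leaf plants of 2–10 cm.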

blackgrass = test: Test A postemergence herbicide test; assay type: in vivo, Alopecurus myosuroides; conditions: for Plant response rating, Blackgrass: 125 g ai/ha, 0 to 100 scale, 0 no effect, 100 complete control; for Blackgrass plant response rating (0 to 100 scale, 0 is no effect, 100 is complete control): 500 g ai/ha
Summary of the method: (§2)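 Visual injury rating, 0 (no effect) to 100 (complete control), versus untreated controls ~10 days after treatment. Postemergence spray applied at one- to two-leaf stage, plants 2–10 cm tall, potted in loam soil/sand. Greenhouse-held.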

kochia = test: Test A pre-/postemergence herbicide test; assay type: in vivo, Kochia scoparia; conditions: for Plant response rating, Kochia: 0 to 100 scale
Summary of the method: as §1

sedge, umbrella = test: Test B flooded paddy test; assay type: in vivo, Cyperus difformis; conditions: 500 g ai/ha, Flood; scale of 0 to 100 where 0 is no effect and 100 is complete control
Summary of the method: (§3)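 2-leaf plants; flood 3 cm over soil; compound into paddy water; depth held. Greenhouse 13–15 d. Visual rating vs controls, 0 (no effect) to 100 (complete control); dash = not tested.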

pigweed = test: Test A pre-/postemergence herbicide test; assay type: in vivo, Amaranthus retroflexus; conditions: for Plant response rating, Pigweed: 0 to 100 scale
Summary of the method: as §1

giant foxtail = test: Test A pre-/postemergence herbicide test; assay type: in vivo, Setaria faberii; conditions: for Plant response rating, Foxtail, Giant: 0 to 100 scale
Summary of the method: as §1

rice = test: Test B flooded paddy test; assay type: in vivo, Oryza sativa; conditions: 500 g ai/ha, Flood; scale of 0 to 100 where 0 is no effect and 100 is complete control
Summary of the method: as §3

ryegrass, Italian = test: Test A pre-/postemergence herbicide test; assay type: in vivo, Lolium multiflorum; conditions: for Plant response rating, Ryegrass, Italian: 0 to 100 scale
Summary of the method: as §1

wheat = test: Test A pre-/postemergence herbicide test; assay type: in vivo, Triticum aestivum; conditions: Postemergence; for Plant response rating, Wheat: 125 g ai/ha, 0 to 100 scale, 0 no effect, 100 complete control; for Wheat plant response rating (0 to 100 scale, 0 is no effect, 100 is complete control): 500 g ai/ha
Summary of the method: as §1

ducksalad = test: Test B flooded paddy test; assay type: in vivo, Heteranthera limosa; conditions: 500 g ai/ha, Flood; scale of 0 to 100 where 0 is no effect and 100 is complete control
Summary of the method: as §3

barnyardgrass [1] = test: Test B flooded paddy test; assay type: in vivo, Echinochloa crus-galli; conditions: 500 g ai/ha, Flood; scale of 0 to 100 where 0 is no effect and 100 is complete control
Summary of the method: as §3

ragweed = test: Test A pre-/postemergence herbicide test; assay type: in vivo, Ambrosia elatior; conditions: for Plant response rating, Ragweed: 0 to 100 scale
Summary of the method: as §1

galium = test: Test A postemergence herbicide test; assay type: in vivo, Galium aparine; conditions: for Plant response rating, Galium: 125 g ai/ha, 0 to 100 scale, 0 no effect, 100 complete control; for Galium plant response rating (0 to 100 scale, 0 is no effect, 100 is complete control): 500 g ai/ha
Summary of the method: as §2

barnyardgrass [2] = test: Test A pre-/postemergence herbicide test; assay type: in vivo, Echinochloa crus-galli
Summary of the method: as §1

[3] = 125 g ai/ha, visual rating, 0 no effect, 100 complete control, approximately 10 days, preemergence
[4] = Postemergence, 125 g ai/ha, 0 no effect, 100 complete control
[5] = 125 g ai/ha, visual rating, 0 to 100 scale, 0 no effect, 100 complete control, approximately 10 days, preemergence
[6] = Postemergence, 125 g ai/ha, 0 to 100 scale, 0 no effect, 100 complete control
[7] = preemergence, 500 g ai/ha, 0 to 100 scale (0 no effect, 100 complete control)

| Structure (SMILES) | Plant response rating, Corn (corn) | Corn plant response rating (0 to 100 scale, 0 is no effect, 100 is complete control) (corn) | Plant response rating, Blackgrass (blackgrass) | Blackgrass plant response rating (0 to 100 scale, 0 is no effect, 100 is complete control) (blackgrass) | Plant response rating, Kochia (kochia; [3]) | Plant response rating, Kochia (kochia; [4]) | Kochia plant response rating (0 to 100 scale, 0 is no effect, 100 is complete control) (kochia; Postemergence, 500 g ai/ha) | Plant response rating, Kochia (kochia; preemergence, 500 g ai/ha) | Plant response rating, Sedge, Umbrella (sedge, umbrella) | Plant response rating, Pigweed (pigweed; [3]) | Plant response rating, Pigweed (pigweed; [4]) | Pigweed plant response rating (0 to 100 scale, 0 is no effect, 100 is complete control) (pigweed; Postemergence, 500 g ai/ha) | Plant response rating, Pigweed (pigweed; preemergence, 500 g ai/ha) | Plant response rating, Foxtail, Giant (giant foxtail; [3]) | Plant response rating, Foxtail, Giant (giant foxtail; [4]) | Foxtail, Giant plant response rating (0 to 100 scale, 0 is no effect, 100 is complete control) (giant foxtail; Postemergence, 500 g ai/ha) | Plant response rating, Foxtail, Giant (giant foxtail; preemergence, 500 g ai/ha) | Plant response rating, Rice (rice) | Plant response rating, Ryegrass, Italian (ryegrass, Italian; [3]) | Plant response rating, Ryegrass, Italian (ryegrass, Italian; [4]) | also measured |
| --- | --- | --- | --- | --- | --- | --- | --- | --- | --- | --- | --- | --- | --- | --- | --- | --- | --- | --- | --- | --- | --- |
| Cc1ccc(C2CNC(=O)C2C(=O)Nc2ccc(F)cc2F)cc1 (racemic) [Compound 150] | 0 | 30 | 0 | 10 | 60 | 30 | 60 | 90 | 0 | 0 | 0 | 20 | 0 | 70 | 30 | 70 | 90 | 0 | 0 | 0 | Ryegrass, Italian plant response rating (0 to 100 scale, 0 is no effect, 100 is complete control) (ryegrass, Italian; Postemergence, 500 g ai/ha): 0; Plant response rating, Ryegrass, Italian (ryegrass, Italian; preemergence, 500 g ai/ha): 50; Plant response rating, Wheat (wheat): 0; Wheat plant response rating (0 to 100 scale, 0 is no effect, 100 is complete control) (wheat): 0; Plant response rating, Ducksalad (ducksalad): 100; Plant response rating, Barnyardgrass (barnyardgrass [1]): 80; Plant response rating, Ragweed (ragweed; [3]): 0; Plant response rating, Ragweed (ragweed; [4]): 0; Ragweed plant response rating (0 to 100 scale, 0 is no effect, 100 is complete control) (ragweed; Postemergence, 500 g ai/ha): 20; Plant response rating, Ragweed (ragweed; preemergence, 500 g ai/ha): 50; Plant response rating, Galium (galium): 50; Galium plant response rating (0 to 100 scale, 0 is no effect, 100 is complete control) (galium): 60; Plant response rating, Barnyardgrass (barnyardgrass [2]; [5]): 80; Plant response rating, Barnyardgrass (barnyardgrass [2]; [6]): 80; Barnyardgrass plant response rating (0 to 100 scale, 0 is no effect, 100 is complete control) (barnyardgrass [2]; Postemergence, 500 g ai/ha): 80; Plant response rating, Barnyardgrass (barnyardgrass [2]; [7]): 90 |
| Cc1cc(C2CNC(=O)C2C(=O)Nc2ccc(F)cc2F)ccc1F (racemic) [Compound 140] | 0 | 0 | 0 | 20 | 0 | 0 | 0 | 0 | 0 | 0 | 0 | 0 | 0 | 50 | 0 | 50 | 90 | 0 | 0 | 0 | Ryegrass, Italian plant response rating (0 to 100 scale, 0 is no effect, 100 is complete control) (ryegrass, Italian; Postemergence, 500 g ai/ha): 0; Plant response rating, Ryegrass, Italian (ryegrass, Italian; preemergence, 500 g ai/ha): 0; Plant response rating, Wheat (wheat): 0; Wheat plant response rating (0 to 100 scale, 0 is no effect, 100 is complete control) (wheat): 0; Plant response rating, Ducksalad (ducksalad): 100; Plant response rating, Barnyardgrass (barnyardgrass [1]): 70; Plant response rating, Ragweed (ragweed; [3]): 0; Plant response rating, Ragweed (ragweed; [4]): 0; Ragweed plant response rating (0 to 100 scale, 0 is no effect, 100 is complete control) (ragweed; Postemergence, 500 g ai/ha): 0; Plant response rating, Ragweed (ragweed; preemergence, 500 g ai/ha): 0; Plant response rating, Galium (galium): 0; Galium plant response rating (0 to 100 scale, 0 is no effect, 100 is complete control) (galium): 30; Plant response rating, Barnyardgrass (barnyardgrass [2]; [5]): 80; Plant response rating, Barnyardgrass (barnyardgrass [2]; [6]): 70; Barnyardgrass plant response rating (0 to 100 scale, 0 is no effect, 100 is complete control) (barnyardgrass [2]; Postemergence, 500 g ai/ha): 80; Plant response rating, Barnyardgrass (barnyardgrass [2]; [7]): 90 |
